Several values for one entry are separate records, joined by “and”; a condition that tells them apart may be missing. Equal values may be shown once.

We go through two compounds from patent US20260345838A1, “IDENTIFICATION AND/OR TREATMENT OF CANCER” (CLARITY PHARMACEUTICALS LIMITED, priority 2022, published 2026).

The subject of one test is prostate cancer. The experiment in a line: PET imaging in post-radical prostatectomy prostate cancer patients with serial negative PSMA-PET. The format is in vivo, human. To be noted: FIGS. 7 to 10. As to the method:
(§1) A dose of 200 MBq ^64Cu-Sar-BBN was administered to a subject by slow intravenous bolus injection. The subject was imaged by PET/CT and the images analysed to determine the location, size and volume of any cancerous lesions present, which is indicated by the decay products of the ^64Cu radioisotope detected.
All patients received on average 200 MBq of [^64Cu]Cu-SAR-BBN intravenously with 60 minutes for uptake. Patient were scanned at 60-180 minutes post-injection with arms up, from vertex to mid thighs and at each bed position for two minutes. A low dose CT scan was performed with for attenuation correction and anatomical localisation. Comparison of the images obtained from each subject after administration of both ^18FDG and ^64Cu-Sar-BBN can be seen in FIGS. 7 to 10.

Test [1] deals with metastatic ER+/PR+/HER2− breast cancer. Nature of the test: PET imaging in women with metastatic ER+/PR+/HER2− breast cancer. The format is in vivo, human. The method, then: Example 5—Administration of ^64Cu-Sar-BBN for Radioimaging
as §1
Women with clinical progression of metastatic ER+/PR+/HER2− breast cancer requiring re-staging were administered ^18FDG and images of each patient acquired by PET. Imaging with ^64Cu-Sar-BBN PET (with 200 MBq ^64Cu-Sar-BBN administered by IV injection) was performed within 2 weeks of imaging by ^18FDG. Qualitative interpretation of the PET studies was performed by accredited nuclear medicine physicians. Quantitative analysis was performed using MIM Software, Cleveland. Comparison of the images obtained from each subject after administration of both ^18FDG and ^64Cu-Sar-BBN can be seen in FIGS. 1 to 6 (see Table 1).

Test [2] has the same test system. To be noted: compared to triple negative subtypes; cited from earlier work.
The mark [3] stands for this setting: 18FDG PET, per patient, listed as FDG.

As to `O=C(O)CCc1ccc(O)c(CN(CCN(CC(=O)O)Cc2cc(CCC(=O)NCCCCCC(=O)NCCCC[C@H](NC(=O)N[C@@H](CCC(=O)O)C(=O)O)C(=O)O)ccc2O)CC(=O)O)c1.[Ga+3]` [^68Ga-PSMA-11], the lesion detection result in the test with prostate cancer is reported as “serial negative PSMA-PET”.

With `OC[C@H]1OC(O)[C@H]([18F])[C@@H](O)[C@@H]1O` (stereo partly shown) [^18FDG], in test [1] (setting [3]), the “FDG SUVmax” value was 7 (2×) and 20 and <3 and 8 and 11; the “FDG TTV (total tumor volume)” value was 91 and 168 and 0 and 8 and 2 and 504. The “lesion detection compared with the other imaging” value in test [1] (breast cancer patients, FIGS. 1 to 6) is listed as “did not reveal any tumors”. Also, in test [1] (patient of FIG. 4), the “number of lesions identified” value is given as “less than 3”. The lesion detection entry with prostate cancer is reported as “failed to identify any recurrent lesions”. Further, in test [2], the “sensitivity of 18FDG-PET for ER+/PR+ breast cancer” value is on record as “lower sensitivity for ER+/PR+ breast cancer, when compared to triple negative”.
